System: MDA-MB-231
Assay: Cytotoxicity against human MDA-MB-231 cells after 3 days by Celltiter-Glo assay
Format: functional, cell-based
Details: MDA-MB-231, 72 h

SMILES | IC50 [µM]
C=C(C)[C@H]1CC=C2[C@@H](CC[C@]3(C)[C@@H]([C@@H](CCC=C(C)C)C(=O)O)CC[C@@]23C)[C@]1(C)CCC(=O)OC | 55
C=C(C)[C@H]1CC=C2[C@@H](CC[C@]3(C)[C@@H]([C@@H](CCC=C(C)C)C(=O)O)CC[C@@]23C)[C@]1(C)CCC(=O)NCc1ccc(Br)cc1 | 140
C=C(C)[C@H]1CC=C2[C@@H](CC[C@]3(C)[C@@H]([C@@H](CCC=C(C)C)C(=O)O)CC[C@@]23C)[C@]1(C)CCC(=O)O | 127
C=C(C)[C@H]1CC=C2[C@@H](CC[C@]3(C)[C@@H]([C@@H](CCC=C(C)C)C(=O)OC)CC[C@@]23C)[C@]1(C)CCC(=O)OC | 63.5
CC[C@H](/C=C/[C@@H](C)[C@H]1CC[C@H]2[C@@H]3CC=C4C[C@@H](O)CC[C@]4(C)[C@H]3CC[C@]12C)C(C)C [STIGMASTEROL] | 564

Source: ChEMBL document CHEMBL4130449, “Bioactive Seco-Lanostane-Type Triterpenoids from the Roots of Leplaea mayombensis” (J Nat Prod, 2017)
